Results from PubChem BioAssay AID248 (DTP/NCI, 2004).
Inconclusive results and toxic doses are left out. Cut-off read from the data, not from the text of the source: active = T/C of 150% or more; inactive = T/C below 125%. Square brackets hold non-standard residues; d marks the D form. Peptide text beside a SMILES is read from it. * marks the point of attachment. Cbz = O=C(OCc1ccccc1)*; Sar = CNCC(=O)O

Test system: L1210 leukemia ip in BDF1 mice, survival T/C
Test: NCI In Vivo Anticancer Drug Screen. Data for tumor model L1210 Leukemia (intraperitoneal) in B6D2F1 (BDF1) mice
Conditions: endpoint: mean survival time, higher = longer survival
Method in brief: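 Tumor cells were implanted, animals were treated, and survival was followed. The result divides the treated measurement by the vehicle-control measurement.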

[1] = dose: 75.0 mg/kg/injection, schedule: Q01DX009 (ip), vehicle: Klucel (hydroxypropylcellulose) (HPC)
[2] = dose: 100.0 mg/kg/injection, schedule: Q04DX003 (ip), vehicle: saline
[3] = dose: 200.0 mg/kg/injection, schedule: Q04DX003 (ip), vehicle: saline
[4] = dose: 400.0 mg/kg/injection, schedule: Q04DX003 (ip), vehicle: saline
[5] = dose: 100.0 mg/kg/injection, schedule: Q01DX009 (ip), vehicle: Klucel (hydroxypropylcellulose) (HPC)
[6] = dose: 200.0 mg/kg/injection, schedule: Q01DX009 (ip), vehicle: Klucel (hydroxypropylcellulose) (HPC)
[7] = dose: 100.0 mg/kg/injection, schedule: Q01DX009 (ip), vehicle: saline with Tween-80
[8] = dose: 200.0 mg/kg/injection, schedule: Q01DX009 (ip), vehicle: saline with Tween-80
[9] = dose: 100.0 mg/kg/injection, schedule: Q01DX001 (ip), vehicle: other
[10] = dose: 200.0 mg/kg/injection, schedule: Q01DX001 (ip), vehicle: other
[11] = dose: 400.0 mg/kg/injection, schedule: Q01DX001 (ip), vehicle: other
[12] = dose: 25.0 mg/kg/injection, schedule: Q01DX009 (ip), vehicle: saline sonified

Measured: T/C

CCC1NC(=O)C(NC(=O)c2ncccc2O)C(C)OC(=O)C(c2ccccc2)NC(=O)C2CC(=O)CCN2C(=O)C(Cc2ccccc2)N(C)C(=O)C2CCCN2C1=O (stereo not given) (tested in a mixture with another compound)
inactive: dose: 18.75 mg/kg/injection, schedule: Q01DX009 (ip), vehicle: Klucel (hydroxypropylcellulose) (HPC) 91 % of control | dose: 37.5 mg/kg/injection, schedule: Q01DX009 (ip), vehicle: Klucel (hydroxypropylcellulose) (HPC) 107 % of control | [1] 98 % of control

COC(=O)CN(C)C(=O)CNC(=O)OCc1ccccc1 (Cbz-Gly-[Sar]-OMe)
inactive: [2] 97 % of control | [3] 90 % of control | [4] 100 % of control

CCC(=O)N(C)c1cccc(O)c1
inactive: dose: 100.0 mg/kg/injection, schedule: Q01DX001 (ip), vehicle: saline with Tween-80 114 % of control | dose: 200.0 mg/kg/injection, schedule: Q01DX001 (ip), vehicle: saline with Tween-80 94 % of control | dose: 400.0 mg/kg/injection, schedule: Q01DX001 (ip), vehicle: saline with Tween-80 97 % of control

NNc1nnc(-c2ccccc2)c2ccccc12
inactive: dose: 15.0 mg/kg/injection, schedule: Q01DX001 (ip), vehicle: carboxymethylcellulose (CMC) 95 % of control | dose: 30.0 mg/kg/injection, schedule: Q01DX001 (ip), vehicle: carboxymethylcellulose (CMC) 101 % of control | dose: 60.0 mg/kg/injection, schedule: Q01DX001 (ip), vehicle: carboxymethylcellulose (CMC) 100 % of control

C=CCC(C#N)(CCN(C)C)c1cccc2ccccc12 (stereo not given)
inactive: [5] 99 % of control | [6] 111 % of control

CCCCOC(=O)c1ccc(NC(=O)CCC(C)Cl)cc1 (stereo not given)
inactive: [2] 94 % of control | [3] 90 % of control | [4] 92 % of control

Cc1ccc(CNc2ccccc2)cc1
inactive: dose: 12.5 mg/kg/injection, schedule: Q04DX003 (ip), vehicle: saline with Tween-80 95 % of control | dose: 25.0 mg/kg/injection, schedule: Q04DX003 (ip), vehicle: saline with Tween-80 95 % of control | dose: 50.0 mg/kg/injection, schedule: Q04DX003 (ip), vehicle: saline with Tween-80 97 % of control | dose: 100.0 mg/kg/injection, schedule: Q01DX009 (ip), vehicle: other 112 % of control | dose: 200.0 mg/kg/injection, schedule: Q01DX009 (ip), vehicle: other 93 % of control | dose: 400.0 mg/kg/injection, schedule: Q01DX009 (ip), vehicle: other 93 % of control

NCc1ccc(NC(=O)c2ccc(C(=O)Nc3ccc(CN)cc3)cc2)cc1
inactive: dose: 15.0 mg/kg/injection, schedule: Q01DX Z (ip), vehicle: water 97 % of control | dose: 20.0 mg/kg/injection, schedule: Q01DX Z (ip), vehicle: water 102 % of control | dose: 30.0 mg/kg/injection, schedule: Q01DX Z (ip), vehicle: water 96 % of control | dose: 40.0 mg/kg/injection, schedule: Q01DX Z (ip), vehicle: water 102 % of control

O=[As](O)(O)c1ccccc1N=Nc1ccccc1
inactive: [1] 100 % of control | dose: 150.0 mg/kg/injection, schedule: Q01DX009 (ip), vehicle: Klucel (hydroxypropylcellulose) (HPC) 87 % of control | dose: 300.0 mg/kg/injection, schedule: Q01DX009 (ip), vehicle: Klucel (hydroxypropylcellulose) (HPC) 108 % of control

COc1ccc(C(O)S(=O)(=O)O)cc1 (stereo not given)
inactive: [2] 98 % of control | [3] 100 % of control | [4] 100 % of control

O=C(c1ccccc1)c1ccc2ccc(F)cc2c1C(=O)O
inactive: [7] 113 % of control | dose: 100.0 mg/kg/injection, schedule: Q04DX003 (ip), vehicle: other 95 % of control | [8] 113 % of control | dose: 200.0 mg/kg/injection, schedule: Q04DX003 (ip), vehicle: other 103 % of control | dose: 400.0 mg/kg/injection, schedule: Q01DX009 (ip), vehicle: saline with Tween-80 107 % of control | dose: 400.0 mg/kg/injection, schedule: Q04DX003 (ip), vehicle: other 101 % of control

CSc1ccc(C(=O)C(CO)NC(C)=O)cc1 (stereo not given)
inactive: dose: 100.0 mg/kg/injection, schedule: Q01DX001 (ip), vehicle: saline 110 % of control | dose: 200.0 mg/kg/injection, schedule: Q01DX001 (ip), vehicle: saline 98 % of control | dose: 400.0 mg/kg/injection, schedule: Q01DX001 (ip), vehicle: saline 97 % of control

CC(=O)OCC(=O)C1(O)CCC2C3CCC4CC(OC(C)=O)CCC4(C)C3CC(=O)C21C (stereo not given)
inactive: [9] 106 % of control | [10] 101 % of control | [11] 102 % of control

O=[n+]1ccn2cc3ccccc3cc2c1
inactive: dose: 12.5 mg/kg/injection, schedule: Q01DX009 (ip), vehicle: saline with Tween-80 105 % of control

Clc1[nH]nc2ccccc12
inactive: [12] 101 % of control | dose: 50.0 mg/kg/injection, schedule: Q01DX009 (ip), vehicle: saline sonified 93 % of control | dose: 100.0 mg/kg/injection, schedule: Q01DX001 (ip), vehicle: saline sonified 91 % of control | dose: 100.0 mg/kg/injection, schedule: Q01DX009 (ip), vehicle: saline sonified 97 % of control

C=CCCC/C(C)=N/NS(=O)(=O)c1ccc(C)cc1
inactive: dose: 50.0 mg/kg/injection, schedule: Q01DX009 (ip), vehicle: saline with Tween-80 112 % of control | [7] 92 % of control | [8] 106 % of control

Nc1cccc2ncccc12
inactive: [2] 104 % of control | [3] 101 % of control | [4] 103 % of control

CC1(C)N=C(N)N=C(N)N1c1ccc(CCCC(=O)Nc2ccc(S(=O)(=O)F)cc2)cc1
inactive: dose: 0.8 mg/kg/injection, schedule: Q01DX009 (ip), vehicle: saline 97 % of control | dose: 4.0 mg/kg/injection, schedule: Q01DX009 (ip), vehicle: saline 98 % of control | dose: 20.0 mg/kg/injection, schedule: Q01DX009 (ip), vehicle: saline 104 % of control | dose: 100.0 mg/kg/injection, schedule: Q01DX009 (ip), vehicle: saline 114 % of control | dose: 500.0 mg/kg/injection, schedule: Q01DX009 (ip), vehicle: saline 123 % of control

NC(=S)SCCC(=O)O
inactive: [5] 96 % of control | [6] 100 % of control | dose: 200.0 mg/kg/injection, schedule: Q04DX003 (ip), vehicle: Klucel (hydroxypropylcellulose) (HPC) 93 % of control | dose: 400.0 mg/kg/injection, schedule: Q01DX009 (ip), vehicle: Klucel (hydroxypropylcellulose) (HPC) 94 % of control | dose: 400.0 mg/kg/injection, schedule: Q04DX003 (ip), vehicle: Klucel (hydroxypropylcellulose) (HPC) 92 % of control

CCOCCN1C=C/C(=C/C=C/c2cc[n+](CCOCC)c3ccccc23)c2ccccc21
inactive: dose: 0.31 mg/kg/injection, schedule: Q04DX003 (ip), vehicle: saline 98 % of control | dose: 0.45 mg/kg/injection, schedule: Q01DX009 (ip), vehicle: saline 104 % of control | dose: 0.62 mg/kg/injection, schedule: Q04DX003 (ip), vehicle: saline 121 % of control | dose: 0.9 mg/kg/injection, schedule: Q01DX009 (ip), vehicle: saline 118 % of control | dose: 1.25 mg/kg/injection, schedule: Q01DX001 (ip), vehicle: saline 96 % of control | dose: 1.25 mg/kg/injection, schedule: Q04DX003 (ip), vehicle: saline 111 % of control | dose: 1.8 mg/kg/injection, schedule: Q04DX003 (ip), vehicle: saline 98 % of control

O=C1c2cc([N+](=O)[O-])ccc2-c2cccc(F)c21
inactive: dose: 100.0 mg/kg/injection, schedule: Q04DX003 (ip), vehicle: acetone 102 % of control | dose: 200.0 mg/kg/injection, schedule: Q04DX003 (ip), vehicle: acetone 94 % of control | dose: 400.0 mg/kg/injection, schedule: Q04DX003 (ip), vehicle: acetone 109 % of control

C[N+]1=C2CCCCC2=C(N)CC1
inactive: dose: 6.25 mg/kg/injection, schedule: Q01DX009 (ip), vehicle: saline sonified 106 % of control | dose: 12.5 mg/kg/injection, schedule: Q01DX009 (ip), vehicle: saline sonified 92 % of control | [12] 92 % of control

COc1ccc(NC(=O)c2cc3ccccc3cc2OC(=O)NC(C)(C)C)cc1
inactive: dose: 100.0 mg/kg/injection, schedule: Q04DX002 (ip), vehicle: saline 103 % of control | dose: 200.0 mg/kg/injection, schedule: Q04DX002 (ip), vehicle: saline 113 % of control | dose: 400.0 mg/kg/injection, schedule: Q04DX002 (ip), vehicle: saline 97 % of control

CCOc1ccc(NC(C)=O)cc1Br
inactive: [9] 103 % of control | [10] 103 % of control | [11] 111 % of control
